{"source": "paper PMC9911596", "about": "(Nature Communications, 2023)", "target": "T1, Vtc1/Vtc3/Vtc4 complex (VTC complex) (Saccharomyces cerevisiae, UniProt P47075+Q02725)", "T1 construct": "full-length subunits co-expressed in Expi293F; Vtc1 C-terminal HA, Vtc3 N-terminal 3xFlag, Vtc4 C-terminal 2xStrep; detergent-purified; 3:1:1 pentamer; with Vacuolar transporter chaperone complex subunit 1", "T1 sequence (P47075 1-721)": "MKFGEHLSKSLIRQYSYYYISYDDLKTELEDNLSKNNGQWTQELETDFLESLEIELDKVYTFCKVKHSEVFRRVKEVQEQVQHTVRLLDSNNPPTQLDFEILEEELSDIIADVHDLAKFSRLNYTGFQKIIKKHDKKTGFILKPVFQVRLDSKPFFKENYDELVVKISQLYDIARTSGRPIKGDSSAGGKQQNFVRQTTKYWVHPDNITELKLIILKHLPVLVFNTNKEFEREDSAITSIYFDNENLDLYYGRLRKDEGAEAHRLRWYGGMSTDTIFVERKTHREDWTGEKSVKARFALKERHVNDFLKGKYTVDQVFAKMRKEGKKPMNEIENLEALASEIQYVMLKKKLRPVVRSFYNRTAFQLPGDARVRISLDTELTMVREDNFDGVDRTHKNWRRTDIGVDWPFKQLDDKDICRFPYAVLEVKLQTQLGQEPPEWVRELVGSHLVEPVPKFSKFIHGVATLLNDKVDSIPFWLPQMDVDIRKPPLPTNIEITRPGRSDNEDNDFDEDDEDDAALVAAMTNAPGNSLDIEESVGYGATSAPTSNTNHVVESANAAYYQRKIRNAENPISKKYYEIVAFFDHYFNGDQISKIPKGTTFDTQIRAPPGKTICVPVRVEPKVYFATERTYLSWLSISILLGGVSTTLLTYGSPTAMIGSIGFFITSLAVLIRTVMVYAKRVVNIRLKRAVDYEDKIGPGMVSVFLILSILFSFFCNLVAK", "T1 sequence (Q02725 1-835)": "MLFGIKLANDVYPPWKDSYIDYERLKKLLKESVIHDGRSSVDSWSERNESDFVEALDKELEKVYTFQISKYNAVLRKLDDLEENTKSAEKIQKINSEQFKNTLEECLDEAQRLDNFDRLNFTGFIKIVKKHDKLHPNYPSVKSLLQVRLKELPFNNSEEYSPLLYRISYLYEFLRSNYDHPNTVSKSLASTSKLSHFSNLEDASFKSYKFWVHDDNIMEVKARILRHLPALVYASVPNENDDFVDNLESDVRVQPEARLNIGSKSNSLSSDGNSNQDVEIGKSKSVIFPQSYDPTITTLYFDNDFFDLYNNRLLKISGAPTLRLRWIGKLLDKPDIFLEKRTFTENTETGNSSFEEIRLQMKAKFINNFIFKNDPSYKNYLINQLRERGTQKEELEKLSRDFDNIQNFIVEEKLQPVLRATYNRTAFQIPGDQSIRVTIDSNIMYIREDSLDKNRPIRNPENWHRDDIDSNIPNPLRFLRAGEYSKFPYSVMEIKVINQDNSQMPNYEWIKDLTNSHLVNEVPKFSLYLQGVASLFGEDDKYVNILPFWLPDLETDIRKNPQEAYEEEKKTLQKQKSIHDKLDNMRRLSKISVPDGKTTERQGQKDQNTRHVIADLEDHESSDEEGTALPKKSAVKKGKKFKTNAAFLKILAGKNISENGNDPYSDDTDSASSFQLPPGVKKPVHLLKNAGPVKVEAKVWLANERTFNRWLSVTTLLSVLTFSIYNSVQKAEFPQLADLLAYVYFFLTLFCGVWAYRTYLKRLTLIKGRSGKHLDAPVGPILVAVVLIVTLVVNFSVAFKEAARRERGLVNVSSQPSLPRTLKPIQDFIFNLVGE", "T1 sequence (P40046 22-129 partner)": "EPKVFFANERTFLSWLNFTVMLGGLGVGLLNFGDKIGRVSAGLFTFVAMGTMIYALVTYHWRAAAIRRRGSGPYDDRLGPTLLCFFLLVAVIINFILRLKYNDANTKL", "experiment": "polyP synthesis, TBE-PAGE; smFRET", "type": "biochemical", "conditions": "1 mM InsP6; activator; deletion of Vtc1 N-terminus", "data": [{"smiles": "O=P(O)(O)O[C@H]1[C@H](OP(=O)(O)O)[C@@H](OP(=O)(O)O)[C@H](OP(=O)(O)O)[C@@H](OP(=O)(O)O)[C@H]1OP(=O)(O)O", "note": "[InsP6]", "values": [{"measurement": "polyP synthesis, TBE-PAGE; smFRET", "value": "mutant VTC complex that can no longer be activated by the InsP6 stimulus"}]}]}
